Data as given in patent US10030016B2 (Sunesis Pharmaceuticals, Inc., priority 2009, dated 2018).
Counter-ions that a name gives are not always drawn. Like-named read-outs stand apart in the source and are kept apart here.

How the values were obtained:
PDK1 = PDK1 (Homo sapiens (Human), UniProt O15530); assay: PDK1 kinase assay (coupled PDK1/AKT/FAM-crosstide assay, IMAP fluorescence polarization); type: biochemical
How it was run: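 GST-tagged human PDK1 (aa 51-359, 0.75 nM) from insect cells activated unphosphorylated GST-AKT2 (aa 140-467–PIFtide fusion, 10 nM), which phosphorylated 100 nM FAM-crosstide; 40 μM ATP, pH 7.2 Tris/MgCl2, 30 min at 25° C. IMAP fluorescence polarization read-out; ΔmP versus compound concentration fitted with a 4-parameter curve.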

[1] = test system: phospho-akt (Thr308) in PC-3 cells; assay: Inhibition of phospho-akt (Thr308) in PC-3 cells, MSD phospho-akt 308 ELISA kit; type: cell-based; conditions: Homo sapiens, 2 hours, no serum, read-out: EC50
How it was run: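 PC-3 cells (15,000/well, overnight in 10% FBS medium) treated 2 h with three-fold diluted compounds in serum-free medium; DMSO high and 5 μM wortmannin low controls. Lysates captured on BSA-blocked MSD plates overnight at 4 °C, then 1 h antibody detection at RT; phospho-Akt Thr308 read by MSD electrochemiluminescence.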

[2] = inhibition of P308 Akt in PC-3 cells using MSD
[3] = inhibition of phospo-PDK1 in vitro
[4] = inhibition of P308 Akt in PC-3 cells, MSD

PDK1, sequence (O15530 51-359): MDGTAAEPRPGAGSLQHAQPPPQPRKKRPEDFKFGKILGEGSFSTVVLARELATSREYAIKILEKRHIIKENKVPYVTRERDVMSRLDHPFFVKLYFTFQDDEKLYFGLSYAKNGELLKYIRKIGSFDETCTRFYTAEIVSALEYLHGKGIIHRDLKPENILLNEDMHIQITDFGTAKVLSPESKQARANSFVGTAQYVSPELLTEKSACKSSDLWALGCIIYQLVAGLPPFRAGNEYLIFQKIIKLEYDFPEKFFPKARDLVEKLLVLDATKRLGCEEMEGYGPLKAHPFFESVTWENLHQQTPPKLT

Row | IC50 (PDK1; inhibition of PDK1 in vitro) [nM] | EC50 [1, 2] [nM] | IC50 (PDK1; [3]) [nM] | EC50 [1, 4] [nM] | EC50 ([1]; PC-3, 2 h, inhibition of P308 Akt in PC-3 cells, MSD) [nM] | SMILES
1 | < 100 | < 1000 |  |  |  | C[C@H](NC(=O)c1cc(C#N)cnc1NCc1ccc(-c2cnc3[nH]nc(N)c3c2)cc1)c1ccc(F)cc1 [Example 122, (S)-2-(4-(3-amino-1H-pyrazolo[3,4-b]pyridin-5-yl)benzylamino)-5-cyano-N-(1-(4-fluorophenyl)ethyl) nicotinamide]
2 | < 100 | < 1000 |  |  |  | Nc1n[nH]c2ncc(-c3ccc(CNc4ncc(C(F)(F)F)cc4C(=O)Nc4ccc(F)nc4)cc3)cc12 [Example 267, 2-(4-(3-amino-1H-pyrazolo [3,4-b]pyridin-5-yl)benzylamino)-N-(6-fluoropyridin-3-yl)-5-(trifluoromethyl) nicotinamide]
3 |  |  | < 100 | > 10000 |  | Nc1ncnc2ccc(-c3csc(CNc4ncccc4C(=O)NCc4ccc(F)c(F)c4)n3)cc12 [Ex. 6.7, 2-({[4-(4-aminoquinazolin-6-yl)-1,3-thiazol-2-yl]methyl}amino)-N-(3,4-difluoro-benzyl) pyridine-3-carboxamide]
4 |  |  | 1000 to 5000 |  | > 10000 | Nc1ncnc2ccc(-c3ccc(CNc4ncccc4C(=O)Nc4cc(F)cc(F)c4)s3)cc12 [Example 3.85, 2-({[5-(4-aminoquinazolin-6-yl)thiophen-2-yl]methyl}amino)-N-(3,5-difluorophenyl)-pyridine-3-carboxamide (TFA salt)]
5 | < 100 | < 1000 |  |  |  | C[C@H](NC(=O)c1cc(C#N)cnc1NCc1ccc(-c2cnc(N)c(CCC(C)(C)N)n2)cc1)c1ccc(F)cc1 [Example 82, 2-{4-[5-Amino-6-(3-amino-3-methyl-butyl)-pyrazin-2-yl]-benzylamino}-5-cyano-N-[(S)-1-(4-fluoro-phenyl)-ethyl]-nicotinamide]
6 | 100 to 1000 | 1000 to 10000 |  |  |  | Nc1n[nH]c2ncc(-c3ccc(CNc4ncc(C(F)(F)F)cc4C(=O)NCC4CC4)cc3)cc12 [Example 272, 2-(4-(3-amino-1H-pyrazolo [3,4-b]pyridin-5-yl)benzylamino)-N-(cyclopropylmethyl)-5-(trifluoromethyl) nicotinamide]
7 |  |  | 100 to 1000 | 1000 to 10000 |  | Nc1ncnc2ccc(-c3ccc(CNc4ncccc4C(=O)NCc4cccc(F)c4F)s3)cc12 [Example 3.10, 2-({[5-(4-aminoquinazolin-6-yl)thiophen-2-yl]methyl}amino)-N-(2,3-difluorobenzyl)pyridine-3-carboxamide (TFA salt)]
8 | 1000 to 5000 | > 10000 |  |  |  | COCCCNc1cnc(-c2ccc(CNc3ncc(C#N)cc3C(=O)N[C@@H](C)c3ccc(F)cc3)cc2)cn1 [Example 228, 5-Cyano-N-[(S)-1-(4-fluoro-phenyl)-ethyl]-2-{4-[5-(3-methoxy-propylamino)-pyrazin-2-yl]-benzylamino}-nicotinamide]
9 | < 100 | < 1000 |  |  |  | Nc1n[nH]c2ncc(-c3ccc(CNc4ncc(C(F)(F)F)cc4C(=O)Nc4ccc(F)cc4F)cc3)cc12 [Example 291, 2-(4-(3-amino-1H-pyrazolo [3,4-b]pyridin-5-yl)benzylamino)-N-(2,4-difluorophenyl)-5-(trifluoromethyl)nicotinamide]
10 |  |  | 100 to 1000 | 1000 to 10000 |  | O=C(NCc1ccc(F)c(F)c1)c1cccnc1NCc1cnc(-c2c[nH]c3ncccc23)s1 [Ex. 6.10, N-(3,4-difluorobenzyl)-2-({[2-(1H-pyrrolo[2,3-b]pyridin-3-yl)-1,3-thiazol-5-yl]methyl}amino) pyridine-3-carboxamide]
11 | < 100 | < 1000 |  |  |  | Nc1n[nH]c2ncc(-c3ccc(CNc4ncc(C(F)(F)F)cc4C(=O)Nc4ccccc4)cc3)cc12 [Example 292, 2-(4-(3-amino-1H-pyrazolo [3,4-b]pyridin-5-yl)benzylamino)-N-phenyl-5-(trifluoromethyl)nicotinamide]
12 | < 100 | < 1000 |  |  |  | Nc1n[nH]c2ncc(-c3ccc(CNc4ncc(C(F)(F)F)cc4C(=O)Nc4ccc(F)cn4)cc3)cc12 [Example 59, 2-(4-(3-amino-1H-pyrazolo[3,4-b]pyridin-5-yl)benzylamino)-N-(5-fluoropyridin-2-yl)-5-(trifluoromethyl)nicotinamide]
13 |  |  | > 5000 | > 10000 |  | C[C@H](NC(=O)c1cccnc1NCc1ccc(-c2ccc3ncc(-n4ccnc4)nc3c2)s1)c1ccc(F)c(F)c1 [Example 4.29, (S)-2-(((5-(3-(1H-imidazol-1-yl)quinoxalin-6-yl)thiophen-2-yl)methyl)amino)-N-(1-(3,4-difluorophenyl)ethyl) nicotinamide]
14 | < 100 | 1000 to 10000 |  |  |  | C[C@H](NC(=O)c1nc(C#N)cnc1NCc1ccc(-c2ccc(N)nn2)cc1)c1ccc(F)c(F)c1 [Example 409, (S)-3-(4-(6-aminopyridazin-3-yl)benzylamino)-6-cyano-N-(1-(3,4-difluorophenyl)ethyl)pyrazine-2-carboxamide]
15 | < 100 | < 1000 |  |  |  | O=C(NCc1ccc(F)c(F)c1)c1cccnc1NCc1cc(-c2c[nH]c3ncc(-c4ccn[nH]4)cc23)ccn1 [Example 54, 2-((4-(5-(1H-pyrazol-5-yl)-1H-pyrrolo[2,3-b]pyridin-3-yl)pyridin-2-yl)methylamino)-N-(3,4-difluorobenzyl)nicotinamide]
16 |  |  | < 100 | > 10000 |  | CNC(=O)c1cc(S(=O)(=O)NCc2ccccc2)cnc1NCc1ccc(-c2ccc3ncnc(N)c3c2)s1 [Example 8.6.15, 2-(((5-(4-aminoquinazolin-6-yl)thiophen-2-yl)methyl)amino)-5-(N-benzylsulfamoyl)-N-methylnicotinamide]
17 | < 100 | < 1000 |  |  |  | C[C@@H](Nc1ncc(C(F)(F)F)nc1C(=O)Nc1ccc(F)cc1)c1ccc(-c2cnc3[nH]nc(N)c3c2)cc1 [Example 421, (R)-3-(1-(4-(3-amino-1H-pyrazolo[3,4-b]pyridin-5-yl)phenyl)ethylamino)-N-(4-fluorophenyl)-6-(trifluoromethyl)pyrazine-2-carboxamide]
18 |  |  | 100 to 1000 | > 10000 |  | O=C(NCc1ccc(F)c(F)c1)c1cccnc1NCc1csc(-c2c[nH]c3ncncc23)n1 [Ex. 6.13, N-(3,4-difluorobenzyl)-2-({[2-(7H-pyrrolo[2,3-d]pyrimidin-5-yl)-1,3-thiazol-4-yl]-methyl}amino) pyridine-3-carboxamide]
19 |  |  | < 100 | > 10000 |  | O=C(NCc1ccc(F)c(F)c1)c1cccnc1NCc1cccc(-c2ccc3ncnc(NC4CC4)c3c2)c1 [Example 6.3, 2-(3-(4-(cyclopropylamino)quinazolin-6-yl)benzylamino)-N-(3,4-difluorobenzyl)-nicotinamide]
20 | < 100 | < 1000 |  |  |  | N#Cc1cnc(NCc2ccc(-c3cnc4[nH]c(=O)[nH]c4c3)cc2)c(C(=O)NCc2ccc(F)cc2)c1 [Example 358, 5-cyano-N-(4-fluorobenzyl)-2-(4-(2-oxo-2,3-dihydro-1H-imidazo[4,5-b]pyridin-6-yl)benzylamino)nicotinamide]
21 |  |  | > 5000 | > 10000 |  | C[C@@H](NC(=O)c1cccnc1NCc1ccc(-c2ccc3ncnc(N)c3c2)s1)c1ccc(F)cc1 [Example 3.14, 2-({[5-(4-aminoquinazolin-6-yl)thiophen-2-yl]methyl}amino)-N-[(1R)-1-{4-fluorophenyl)ethyl]pyridine-3-carboxamide (TFA salt)]
22 |  |  | 100 to 1000 | 1000 to 10000 |  | C[C@H](NC(=O)c1cc(C(F)(F)F)cnc1NCc1ccc(-c2cc3c(N)ncnc3cn2)s1)c1ccc(F)c(F)c1 [Example 8.12.8, 2-({[5-(4-aminopyrido [3,4-d]pyrimidin-6-yl)thiophen-2-yl]methyl}amino)-N-[(1S)-1-(3,4-difluorophenyl)ethyl]-5-(trifluoromethyl) pyridine-3-carboxamide]
23 |  |  | < 100 | < 1000 |  | Cc1nc[nH]c1/C=C1\C(=O)Nc2cc(/C=C/CNc3ncccc3C(=O)NCc3ccc(F)c(F)c3)ccc21 [Example 15.7, N-(3,4-Difluoro-benzyl)-2-((E)-3-{3-[1-(5-methyl-3H-imidazol-4-yl)-meth-(Z)-ylidene]-2-oxo-2,3-dihydro-1H-indol-6-yl}-allylamino)-nicotinamide]
24 |  |  | < 100 | 1000 to 10000 |  | Cc1ccc(CNC(=O)c2cccnc2NCc2cc(OC(C)C)cc(-c3c[nH]c4ncc(C(=O)NC5CC5)cc34)c2)o1 [Example 4.1.14, N-cyclopropyl-3-[3-{[(3-{[(5-methylfuran-2-yl)methyl]carbamoyl}pyridin-2-yl)amino]methyl}-5-(propan-2-yloxy)phenyl]-1H-pyrrolo[2,3-b] pyridine-5-carboxamide]
25 | < 100 | 1000 to 10000 |  |  |  | NCCNc1n[nH]c2ncc(-c3ccc(CNc4ncc(C(F)(F)F)cc4C(=O)NCc4ccc(F)c(F)c4)cc3)cc12 [Example 153, 2-(4-(3-(2-amino-ethylamino)-1H-pyrazolo [3,4-b]pyridin-5-yl)benzylamino)-N-(3,4-difluorobenzyl)-5-(trifluoromethyl) nicotinamide]
26 | < 100 | < 1000 |  |  |  | C[C@H](NC(=O)c1nc(C#N)cnc1NCc1ccc(-c2ccn3ncnc(N)c23)cc1)c1ccc(F)c(F)c1 [Example 175, 3-[4-(4-Amino-pyrrolo [2,1-f][1,2,4]triazin-5-yl)-benzylamino]-6-cyano-pyrazine-2-carboxylic acid [(S)-1-(3,4-difluoro-phenyl)-ethyl]-amide]
